What all share (settings): Compound concentration 10.0 uM
In assay [1] the target is Substance-P receptor (Homo sapiens) (UniProt P25103). Description: NK1 Eurofins Bayer panel.
Assay [2] addresses Adenosine receptor A2b (Homo sapiens) (UniProt P29275). As to the kind of experiment: A2B Eurofins Bayer panel.
The target in assay [3] is T1, Muscarinic acetylcholine receptor M4 (Homo sapiens) (UniProt P08173).
T1 sequence (whole entry): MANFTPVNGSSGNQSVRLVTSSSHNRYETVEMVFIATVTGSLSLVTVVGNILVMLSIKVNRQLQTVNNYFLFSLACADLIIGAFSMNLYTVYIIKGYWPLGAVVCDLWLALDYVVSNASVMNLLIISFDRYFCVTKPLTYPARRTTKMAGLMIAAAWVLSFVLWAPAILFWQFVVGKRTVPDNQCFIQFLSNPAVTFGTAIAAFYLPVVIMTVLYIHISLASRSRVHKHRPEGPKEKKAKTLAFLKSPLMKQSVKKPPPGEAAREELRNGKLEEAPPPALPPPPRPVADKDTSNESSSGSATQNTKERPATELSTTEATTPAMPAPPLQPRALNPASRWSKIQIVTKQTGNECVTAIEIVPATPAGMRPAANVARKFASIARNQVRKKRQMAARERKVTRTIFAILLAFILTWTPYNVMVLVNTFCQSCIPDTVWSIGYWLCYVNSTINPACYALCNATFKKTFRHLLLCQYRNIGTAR
As to the kind of experiment: M4 Eurofins Bayer panel.

In assay [4] the target is Histamine H2 receptor (Homo sapiens) (UniProt P25021). As to the kind of experiment: H2 Eurofins Bayer panel.
Sequence of Histamine H2 receptor (Homo sapiens) (P25021 whole entry): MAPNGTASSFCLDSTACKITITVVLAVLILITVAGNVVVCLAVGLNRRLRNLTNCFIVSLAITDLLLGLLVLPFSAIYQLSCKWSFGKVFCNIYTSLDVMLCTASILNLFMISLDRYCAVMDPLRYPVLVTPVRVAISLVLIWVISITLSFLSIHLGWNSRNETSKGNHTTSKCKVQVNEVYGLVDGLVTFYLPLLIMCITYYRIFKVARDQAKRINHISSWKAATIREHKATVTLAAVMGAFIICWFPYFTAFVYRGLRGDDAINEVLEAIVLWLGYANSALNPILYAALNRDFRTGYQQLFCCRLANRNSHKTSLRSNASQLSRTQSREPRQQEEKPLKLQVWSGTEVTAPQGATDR
Assay [5] addresses Beta-1 adrenergic receptor (Homo sapiens) (UniProt P08588). Description: beta 1 Eurofins Bayer panel.
For assay [6], the target named is T2, Alpha-1A adrenergic receptor (Homo sapiens) (UniProt P35348).
T2 sequence (whole entry): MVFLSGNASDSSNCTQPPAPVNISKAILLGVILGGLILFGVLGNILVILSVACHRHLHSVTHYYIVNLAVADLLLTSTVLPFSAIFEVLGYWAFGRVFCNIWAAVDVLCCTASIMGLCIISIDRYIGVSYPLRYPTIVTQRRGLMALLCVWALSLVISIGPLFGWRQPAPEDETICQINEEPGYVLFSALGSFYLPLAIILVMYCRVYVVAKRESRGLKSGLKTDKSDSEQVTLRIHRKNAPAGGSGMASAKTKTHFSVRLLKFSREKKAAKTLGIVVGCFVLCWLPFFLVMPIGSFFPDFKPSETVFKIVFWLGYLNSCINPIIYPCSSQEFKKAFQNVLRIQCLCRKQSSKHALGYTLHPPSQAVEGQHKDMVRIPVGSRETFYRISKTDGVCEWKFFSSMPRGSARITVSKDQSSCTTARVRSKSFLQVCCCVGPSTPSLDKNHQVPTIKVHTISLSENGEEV
Description: alpha 1A Eurofins Bayer panel.

For assay [7], the target named is Adenosine receptor A3 (Homo sapiens) (UniProt P0DMS8). Description: A3 Eurofins Bayer panel.
Sequence of Adenosine receptor A3 (Homo sapiens) (P0DMS8 whole entry): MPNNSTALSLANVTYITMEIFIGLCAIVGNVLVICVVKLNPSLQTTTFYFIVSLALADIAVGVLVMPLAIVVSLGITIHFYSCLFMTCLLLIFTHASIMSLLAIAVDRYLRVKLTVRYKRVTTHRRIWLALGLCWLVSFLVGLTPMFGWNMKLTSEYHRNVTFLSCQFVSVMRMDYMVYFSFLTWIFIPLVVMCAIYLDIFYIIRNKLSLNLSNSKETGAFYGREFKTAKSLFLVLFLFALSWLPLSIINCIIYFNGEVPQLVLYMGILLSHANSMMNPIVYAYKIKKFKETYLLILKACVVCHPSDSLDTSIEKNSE
In assay [8] the target is 5-hydroxytryptamine receptor 7 (Homo sapiens) (UniProt P34969).
Sequence of 5-hydroxytryptamine receptor 7 (Homo sapiens) (P34969 whole entry): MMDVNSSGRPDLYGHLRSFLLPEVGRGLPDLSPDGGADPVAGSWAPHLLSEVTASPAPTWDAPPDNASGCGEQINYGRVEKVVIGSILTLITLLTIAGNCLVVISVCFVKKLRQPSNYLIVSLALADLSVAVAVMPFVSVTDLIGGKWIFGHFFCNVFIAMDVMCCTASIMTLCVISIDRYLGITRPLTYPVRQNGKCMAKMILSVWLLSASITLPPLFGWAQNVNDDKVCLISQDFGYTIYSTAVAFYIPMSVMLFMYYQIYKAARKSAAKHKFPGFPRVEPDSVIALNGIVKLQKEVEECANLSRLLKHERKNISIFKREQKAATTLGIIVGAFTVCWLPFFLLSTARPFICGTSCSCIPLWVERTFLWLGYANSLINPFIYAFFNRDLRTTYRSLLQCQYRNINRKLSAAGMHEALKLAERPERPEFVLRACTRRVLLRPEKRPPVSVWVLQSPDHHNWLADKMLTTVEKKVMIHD
The target in assay [9] is Histamine H1 receptor (Homo sapiens) (UniProt P35367). Description: H1 Eurofins Bayer panel.
Sequence of Histamine H1 receptor (Homo sapiens) (P35367 whole entry): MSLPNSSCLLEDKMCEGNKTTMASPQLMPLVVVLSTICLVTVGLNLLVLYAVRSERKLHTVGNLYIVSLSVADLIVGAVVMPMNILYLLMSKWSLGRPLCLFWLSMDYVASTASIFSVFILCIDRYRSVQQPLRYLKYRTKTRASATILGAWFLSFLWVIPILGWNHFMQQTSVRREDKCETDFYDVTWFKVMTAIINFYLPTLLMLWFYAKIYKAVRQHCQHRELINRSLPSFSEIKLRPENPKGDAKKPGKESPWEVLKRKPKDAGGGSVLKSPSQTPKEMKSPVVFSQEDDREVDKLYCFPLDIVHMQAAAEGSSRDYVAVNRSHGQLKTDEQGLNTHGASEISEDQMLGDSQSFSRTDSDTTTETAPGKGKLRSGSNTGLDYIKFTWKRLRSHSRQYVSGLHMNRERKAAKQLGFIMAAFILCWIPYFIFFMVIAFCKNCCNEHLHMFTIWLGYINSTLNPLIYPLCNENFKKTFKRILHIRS
Assay [10] has as its target T3, 5-hydroxytryptamine receptor 1A (Homo sapiens) (UniProt P08908).
T3 sequence (whole entry): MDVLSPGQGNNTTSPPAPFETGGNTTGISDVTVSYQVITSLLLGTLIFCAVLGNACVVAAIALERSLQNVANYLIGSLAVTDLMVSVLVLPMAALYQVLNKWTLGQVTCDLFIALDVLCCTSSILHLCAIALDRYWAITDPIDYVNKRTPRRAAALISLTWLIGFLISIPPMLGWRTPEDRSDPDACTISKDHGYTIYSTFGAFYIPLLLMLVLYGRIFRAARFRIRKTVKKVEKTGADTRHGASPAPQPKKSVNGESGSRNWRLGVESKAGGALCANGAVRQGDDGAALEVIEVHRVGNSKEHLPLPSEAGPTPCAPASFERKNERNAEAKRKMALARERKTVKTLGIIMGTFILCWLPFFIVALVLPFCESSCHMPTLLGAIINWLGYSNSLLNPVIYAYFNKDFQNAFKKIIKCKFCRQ
Description: 5-HT1A Eurofins Bayer panel.

One may read the inhibition as the percentage by which the read-out fell short of the control.

Sequence of Adenosine receptor A2b (Homo sapiens) (P29275 whole entry): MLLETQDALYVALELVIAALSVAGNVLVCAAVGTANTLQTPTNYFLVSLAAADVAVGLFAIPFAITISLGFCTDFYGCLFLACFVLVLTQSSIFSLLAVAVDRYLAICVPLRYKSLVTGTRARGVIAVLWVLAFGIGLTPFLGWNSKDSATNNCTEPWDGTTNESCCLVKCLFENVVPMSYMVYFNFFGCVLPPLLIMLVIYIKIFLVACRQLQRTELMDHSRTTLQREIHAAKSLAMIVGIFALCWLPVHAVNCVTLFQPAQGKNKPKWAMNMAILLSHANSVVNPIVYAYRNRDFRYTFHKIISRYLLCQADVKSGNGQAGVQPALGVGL
Sequence of Beta-1 adrenergic receptor (Homo sapiens) (P08588 whole entry, looked up): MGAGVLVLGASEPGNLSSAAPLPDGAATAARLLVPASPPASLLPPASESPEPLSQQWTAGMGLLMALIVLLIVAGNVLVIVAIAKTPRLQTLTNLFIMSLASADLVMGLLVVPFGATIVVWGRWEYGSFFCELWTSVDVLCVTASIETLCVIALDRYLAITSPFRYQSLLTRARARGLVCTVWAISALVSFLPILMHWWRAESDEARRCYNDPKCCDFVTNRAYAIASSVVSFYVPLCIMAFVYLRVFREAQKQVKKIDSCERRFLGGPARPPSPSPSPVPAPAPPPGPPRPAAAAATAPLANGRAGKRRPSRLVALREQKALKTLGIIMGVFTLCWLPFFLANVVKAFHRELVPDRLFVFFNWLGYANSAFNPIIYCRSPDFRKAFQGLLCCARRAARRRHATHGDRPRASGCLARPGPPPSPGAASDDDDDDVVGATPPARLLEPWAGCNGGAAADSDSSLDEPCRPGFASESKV
Sequence of Substance-P receptor (Homo sapiens) (P25103 whole entry): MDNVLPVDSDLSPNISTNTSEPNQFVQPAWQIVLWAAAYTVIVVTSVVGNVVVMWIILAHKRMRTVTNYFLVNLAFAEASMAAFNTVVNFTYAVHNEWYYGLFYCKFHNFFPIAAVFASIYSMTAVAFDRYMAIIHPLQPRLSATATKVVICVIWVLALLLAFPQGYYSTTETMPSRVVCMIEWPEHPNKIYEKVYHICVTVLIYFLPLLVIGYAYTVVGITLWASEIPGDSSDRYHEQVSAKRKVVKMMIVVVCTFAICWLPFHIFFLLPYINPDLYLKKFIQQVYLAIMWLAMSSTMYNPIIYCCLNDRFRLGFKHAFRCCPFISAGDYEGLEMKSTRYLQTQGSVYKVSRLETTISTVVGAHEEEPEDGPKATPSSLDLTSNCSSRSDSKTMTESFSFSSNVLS

As to `O=C(Nc1cnc(Oc2ccc(F)cc2)nc1)N1CCc2ncccc2[C@@H]1c1ccc(F)cc1` [BAY-899], the Activation (% of control) in [1] was -3%; in assay [2], -1%; in assay [3], -6%; in assay [4] it was -2%; in [5], -1%; in [6], 2%. Also, the Activation (% of control) in assay [7] was 25%; in assay [9] it was -4%; in assay [10], 1%. Moreover, the Inhibition (% of control) in assay [1] was found to be 24%; in assay [2] it was 16%; in [3] it was 2%; in [4], 34%; in assay [5] it was 13%; in assay [6] it was 45%. The Inhibition (% of control) in [7] is -6%; in assay [9], 4%; in assay [10], 0%. For the same compound, the inhibition in assay [8] was 2.63%.
